Measurements from article PMC5078011, “The oleocanthal-based homovanillyl sinapate as a novel c-Met inhibitor” (Oncotarget, 2016).

Molecular target: c-Met (M1250T) (Homo sapiens, UniProt P08581, M1250T)
Test: Z'-LYTE Tyr6 peptide kinase assay, recombinant M1250T c-Met
Assay type: biochemical
Conditions: read-out: (-)-Oleocanthal^a / IC50 (μM) ± SEM

c-Met (M1250T), sequence (P08581 956-1390 M1250T limits assumed): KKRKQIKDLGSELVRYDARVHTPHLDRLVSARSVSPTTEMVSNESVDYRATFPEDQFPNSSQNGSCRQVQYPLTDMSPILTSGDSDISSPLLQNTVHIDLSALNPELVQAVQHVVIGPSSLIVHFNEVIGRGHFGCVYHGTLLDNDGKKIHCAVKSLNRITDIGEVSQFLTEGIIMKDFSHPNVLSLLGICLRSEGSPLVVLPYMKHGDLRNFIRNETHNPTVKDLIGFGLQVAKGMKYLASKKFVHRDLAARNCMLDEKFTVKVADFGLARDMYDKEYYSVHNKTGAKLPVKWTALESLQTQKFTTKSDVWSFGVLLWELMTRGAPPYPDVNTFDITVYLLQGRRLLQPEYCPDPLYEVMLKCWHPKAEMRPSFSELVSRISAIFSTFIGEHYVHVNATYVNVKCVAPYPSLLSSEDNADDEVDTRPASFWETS

SMILES: C/C=C(/C=O)[C@@H](CC=O)CC(=O)OCCc1ccc(O)cc1 [S (−)-oleocanthal]
- IC50: 3.9 µM
